Consider 27 compounds from patent publication US20120172369A1 (priority 2009, published 2012).

The first assay deals with T1, human DGAT1 enzyme (Homo sapiens, UniProt O75907).
T1 construct: made in house; host or cells: Sf9 insect cells (microsomal membranes)
T1 sequence (O75907 1-488): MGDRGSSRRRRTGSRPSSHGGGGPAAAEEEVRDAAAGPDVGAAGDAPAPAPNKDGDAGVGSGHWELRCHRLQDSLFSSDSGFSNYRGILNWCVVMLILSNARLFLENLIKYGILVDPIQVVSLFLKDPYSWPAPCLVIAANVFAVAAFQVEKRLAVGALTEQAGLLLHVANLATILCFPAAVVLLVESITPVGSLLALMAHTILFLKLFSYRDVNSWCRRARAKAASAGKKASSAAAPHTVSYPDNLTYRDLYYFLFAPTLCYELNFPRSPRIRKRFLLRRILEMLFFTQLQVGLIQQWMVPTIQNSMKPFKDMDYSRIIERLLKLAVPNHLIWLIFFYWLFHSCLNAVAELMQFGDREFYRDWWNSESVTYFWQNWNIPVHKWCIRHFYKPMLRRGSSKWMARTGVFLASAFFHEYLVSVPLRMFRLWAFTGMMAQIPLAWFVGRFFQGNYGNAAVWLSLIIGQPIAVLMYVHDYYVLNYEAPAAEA
In words: in vitro DGAT1 inhibition assay (microsomes, [14C]-palmitoyl-CoA, SPA beads).
Conditions: not given
In kind it is biochemical. As to the method: The in vitro assay to identify DGAT1 inhibitors uses human DGAT1 enzyme expressed in Sf9 insect cells prepared as microsomes. The reaction was initiated by the addition of the combined substrates 1,2-dioleoyl-sn-glycerol and [^14C]-palmitoyl-Co A and incubated with test compounds and microsomal membranes for 2 hours at room temperature. The assay was stopped by adding 0.5 mg wheat germ agglutinin beads in assay buffer with 1% Brij-35 and 1% 3-cholamidopropyldimethyl-ammonio-1-propane sulfonate. Plates were sealed with TopSeal and incubated for 18 hours to allow the radioactive triglyceride product to come into proximity with the bead. Plates were read on a TopCount instrument.
Percent inhibition was calculated as the percent of (test compound inhibition minus non-specific binding) relative to (total binding minus non-specific binding). IC50 values were determined by curve fitting the data to a Sigmoidal dose-response in GraphPad Prism utilizing the following equation:
Y=A+(B−A)/(1+10̂((Log IC50−X))),
where A and B are the bottom and top of the curve (highest and lowest inhibition), respectively, and X is the logarithm of concentration.
One may read the IC50 as the midpoint of a concentration-inhibition curve. `Cc1c(C(=O)Nc2ccc(N3CCN(C(=O)Nc4ccccc4F)CC3)nc2)oc2c(C)cccc12` [Example 8, 4-(5-(3,7-dimethylbenzofuran-2-carboxamido)pyridin-2-yl)-N-(2-fluorophenyl)piperazine-1-carboxamide] gave an IC50 of 48 nM.

Still in this assay, the particulars now being: human DGAT1 expressed in Sf9 insect cells, microsomes; 2 hours at room temperature; read-out: IC50.
In the case of `Cc1c(C(=O)Nc2ccc(N3CCN(C(=O)Nc4ccccc4F)CC3)nc2)oc2c(F)cccc12` [Example 9, 4-(5-(7-fluoro-3-methylbenzofuran-2-carboxamido)pyridin-2-yl)-N-(2-fluorophenyl)piperazine-1-carboxamide], the IC50 worked out at 49 nM.

In the case of `Cc1c(C(=O)Nc2ccc(N3CCN(C(=O)Nc4ccccc4F)CC3)nc2)oc2ccc(-c3ccc(F)cc3)cc12` [Example 40, N-(2-fluorophenyl)-4-(5-(5-(4-fluorophenyl)-3-methylbenzofuran-2-carboxamido)pyridin-2-yl)piperazine-1-carboxamide], the IC50 came to 100 nM.

As for `O=C(Nc1ccc(N2CCN(C(=O)Nc3ccccc3F)CC2)nc1)c1coc2ccccc12` [Example 11, 4-(5-(benzofuran-3-carboxamido)pyridin-2-yl)-N-(2-fluorophenyl)piperazine-1-carboxamide], the IC50 was 95 nM.

As to `Cc1c(C(=O)Nc2ccc(-c3ccc(OCC(C)(C)C(=O)O)nc3)cc2)oc2ccc(-c3ccccc3)cc12` [Example 58, 2,2-dim ethyl-3-(5-(4-(3-methyl-5-phenylbenzofuran-2-carboxamido)phenyl)pyridin-2-yloxy)propanoic acid], the IC50 stood at 13 nM.

As for `Cc1c(C(=O)Nc2ccc(N3CC[C@@H](COc4ccc(C(=O)O)cc4)C3)nc2)oc2ccc(-c3ccccc3)cc12` [Example 80, (R)-4-((1-(5-(3-methyl-5-phenylbenzofuran-2-carboxamido)pyridin-2-yl)pyrrolidin-3-yl)methoxy)benzoic acid], the IC50 was found to be 600 nM.

Turning to `Cc1c(C(=O)Nc2ccc(N3CCC(COc4cccc(C(=O)O)c4)CC3)nc2)oc2ccc(Oc3ccccc3)cc12` [Example 94, 3-((1-(5-(3-methyl-5-phenoxybenzofuran-2-carboxamido)pyridin-2-yl)piperidin-4-yl)methoxy)benzoic acid], the IC50 was determined as 71 nM.

As for `Cc1c(C(=O)Nc2ccc(N3CCN(C(=O)Nc4ccccc4F)CC3)nc2)oc2ccc(-c3ccccc3F)cc12` [Example 20, N-(2-fluorophenyl)-4-(5-(5-(2-fluorophenyl)-3-methylbenzofuran-2-carboxamido)pyridin-2-yl)piperazine-1-carboxamide], the IC50 came to 115 nM.

Take `CCOC(=O)c1ccccc1NC(=O)N1CCN(c2ccc(NC(=O)c3oc4ccc(-c5cccc(F)c5)cc4c3C)cn2)CC1` [Example 30, ethyl 2-(4-(5-(5-(3-fluorophenyl)-3-methylbenzofuran-2-carboxamido)pyridin-2-yl)piperazine-1-carboxamido)benzoate]: the IC50 stood at 1420 nM.

For `Cc1c(C(=O)Nc2ccc(N3CCN(C(=O)Nc4ccccc4F)CC3)nc2)sc2ccc(-c3ccccc3)cc12` [Example 46, N-(2-fluorophenyl)-4-(5-(3-methyl-5-phenylbenzo[b]thiophene-2-carboxamido)pyridin-2-yl)piperazine-1-carboxamide], the IC50 was found to be 84 nM.

Regarding `Cc1c(C(=O)Nc2ccc(N3CCN(C(=O)Nc4ccccc4F)CC3)nc2)oc2ccc(-c3cccc(F)c3)cc12` [Example 27, N-(2-fluorophenyl)-4-(5-(5-(3-fluorophenyl)-3-methylbenzofuran-2-carboxamido)pyridin-2-yl)piperazine-1-carboxamide], the IC50 is 316 nM.

`O=C(Nc1ccc(N2CCN(C(=O)Nc3ccccc3F)CC2)nc1)c1csc2ccccc12` [Example 10, 4-(5-(benzo[b]thiophene-3-carboxamido)pyridin-2-yl)-N-(2-fluorophenyl)piperazine-1-carboxamide]: the IC50 was 37 nM.

For `CCOC(=O)c1ccccc1NC(=O)N1CCN(c2ccc(NC(=O)c3oc4ccc(-c5ccccc5F)cc4c3C)cn2)CC1` [Example 21, ethyl 2-(4-(5-(5-(2-fluorophenyl)-3-methylbenzofuran-2-carboxamido)pyridin-2-yl)piperazine-1-carboxamido)benzoate], the IC50 was 566 nM.

Turning to `Cc1c(C(=O)Nc2ccc(N3CCN(C(=O)Nc4ccccc4F)CC3)nc2)oc2ccc(-c3ncco3)cc12` [Example 82, N-(2-fluorophenyl)-4-(5-(3-methyl-5-(oxazol-2-yl)benzofuran-2-carboxamido)pyridin-2-yl)piperazine-1-carboxamide], the IC50 amounted to 104 nM.

Consider `Cc1c(C(=O)Nc2ccc(-c3ccc(OCC(C)(C)C(=O)O)nc3)nc2)oc2ccc(-c3ccccc3)cc12` [Example 59, 2,2-dimethyl-3-(5-(3-methyl-5-phenylbenzofuran-2-carboxamido)-2,3′-bipyridin-6′-yloxy)propanoic acid], for which the IC50 is 9 nM.

As to `CCOC(=O)c1ccccc1NC(=O)N1CCN(c2ccc(NC(=O)c3oc4ccc(-c5ccccc5)cc4c3C)cn2)CC1` [Example 14, ethyl 2-(4-(5-(3-methyl-5-phenylbenzofuran-2-carboxamido)pyridin-2-yl)piperazine-1-carboxamido)benzoate], the 50% inhibitory concentration (IC50) is 361 nM.

As for `Cc1c(C(=O)Nc2ccc(N3CCC(OCc4cccc(C(=O)O)c4)CC3)nc2)oc2ccc(-c3ncco3)cc12` [Example 86, 3-((1-(5-(3-methyl-5-(oxazol-2-yl)benzofuran-2-carboxamido)pyridin-2-yl)piperidin-4-yloxy)methyl)benzoic acid], the IC50 stood at 305 nM.

As to “ethyl 2-(4-(5-(5-(4-methoxyphenyl)-3-methylbenzofuran-2-carboxamido)pyridin-2-yl)piperazine-1-carboxamido)benzoate [Example 66]”, the IC50 is 454 nM.

Consider `Cc1c(C(=O)Nc2ccc(N3CCC(COc4cccc(C(=O)O)c4)CC3)nc2)oc2ccccc12` [Example 91, 3-((1-(5-(3-methylbenzofuran-2-carboxamido)pyridin-2-yl)piperidin-4-yl)methoxy)benzoic acid], for which the IC50 stood at 84 nM.

For the compound `Cc1c(C(=O)Nc2ccc(N3CCN(C(=O)Nc4ccccc4C(=O)O)CC3)nc2)oc2ccc(-c3cccc(F)c3)cc12` [Example 31, 2-(4-(5-(5-(3-fluorophenyl)-3-methylbenzofuran-2-carboxamido)pyridin-2-yl)piperazine-1-carboxamido)benzoic acid], the IC50 worked out at 84 nM.

For `COc1ccc(-c2ccc3oc(C(=O)Nc4ccc(N5CCC(OCc6cccc(C(=O)O)c6)CC5)nc4)c(C)c3c2)cc1` [Example 64, 3-((1-(5-(5-(4-methoxyphenyl)-3-methylbenzofuran-2-carboxamido)pyridin-2-yl)piperidin-4-yloxy)methyl)benzoic acid], the IC50 came to 65 nM.

With `Cc1c(C(=O)Nc2ccc(N3CCC(OCc4cccc(C(=O)O)c4)CC3)nc2)oc2ccc(-c3ccccc3F)cc12` [Example 25, 3-((1-(5-(5-(2-fluorophenyl)-3-methylbenzofuran-2-carboxamido)pyridin-2-yl)piperidin-4-yloxy)methyl)benzoic acid], the IC50 amounted to 93 nM.

`Cc1ccc(C(=O)O)cc1COC1CCN(c2ccc(NC(=O)c3oc4ccc(-c5ccccc5)cc4c3C)cn2)CC1` [Example 78, 4-methyl-3-((1-(5-(3-methyl-5-phenylbenzofuran-2-carboxamido)pyridin-2-yl)piperidin-4-yloxy)methyl)benzoic acid]: the IC50 came to 156 nM.

As for `Cc1c(C(=O)Nc2ccc(N3CCN(C(=O)Nc4ccccc4F)CC3)nc2)sc2ccc(-c3ccc(F)cc3)cc12` [Example 55, N-(2-fluorophenyl)-4-(5-(5-(4-fluorophenyl)-3-methylbenzo[b]thiophene-2-carboxamido)pyridin-2-yl)piperazine-1-carboxamide], the IC50 amounted to 78 nM.

For the compound `Cc1c(C(=O)Nc2ccc(N3CCN(C(=O)[C@H](O)c4ccccc4)CC3)nc2)oc2ccccc12` [Example 2, (R)—N-(6-(4-(2-hydroxy-2-phenylacetyl)piperazin-1-yl)pyridin-3-yl)-3-methylbenzofuran-2-carboxamide], the IC50 is 625 nM.

Regarding `CCOC(=O)c1ccccc1NC(=O)N1CCN(c2ccc(NC(=O)c3oc4ccc(-c5ccc(F)cc5)cc4c3C)cn2)CC1` [Example 38, ethyl 2-(4-(5-(5-(4-fluorophenyl)-3-methylbenzofuran-2-carboxamido)pyridin-2-yl)piperazine-1-carboxamido)benzoate], the IC50 stood at 1010 nM.

On to `Cc1c(C(=O)Nc2ccc(N3CCC(OCc4cccc(C(=O)O)c4)CC3)nc2)oc2ccc(-c3cccc(F)c3)cc12` [Example 29, 3-((1-(5-(5-(3-fluorophenyl)-3-methylbenzofuran-2-carboxamido)pyridin-2-yl)piperidin-4-yloxy)methyl)benzoic acid], for which the IC50 stood at 134 nM.
